# Assay results taken from ChEMBL document CHEMBL1152995, “Combined real-time PCR and pyrosequencing strategy for objective, sensitive, specific, and high-throughput identification of reduced susceptibility to penicillins in Neisseria meningitidis” (2008).
# Tests used:
# [1] = system: Neisseria meningitidis; assay: Antibacterial activity against penicillin-intermediate resistant Neisseria meningitidis clinical isolates harbouring altered penA gene after 24 hrs by Etest method; type: functional
# [2] = system: Neisseria meningitidis; assay: Antibacterial activity against penicillin-intermediate resistant Neisseria meningitidis after 24 hrs by Etest method; type: functional
Structure (SMILES),MIC [1] [µg/mL],MIC [2] [µg/mL]
CC1(C)S[C@@H]2[C@H](NC(=O)[C@H](N)c3ccccc3)C(=O)N2[C@H]1C(=O)O [AMPICILLIN],> 0.064,
CO/N=C(\C(=O)N[C@@H]1C(=O)N2C(C(=O)O)=C(COC(C)=O)CS[C@H]12)c1csc(N)n1 [CEFOTAXIME],≤ 0.012,
CC1(C)S[C@@H]2[C@H](NC(=O)Cc3ccccc3)C(=O)N2[C@H]1C(=O)O [PENICILLIN G],> 0.094,0.064
